In patent US20080044474A1, “Dispersions of nanoureas comprising biologically active compounds” (Bayer MaterialScience AG, priority 2006, published 2008):

How the values were obtained:
Type in all cases: cell-based
[1] = tested on: Staphylococcus epidermidis (ATC 14990); assay: Agar plate inhibition halo test according to Example 5, overnight culture
Description: Cells of Staphylococcus epidermidis 498 and Bacillus subtilis 168 are plated out on agar plates such that, after incubation overnight at 37° C., they have formed a visible cell lawn on the agar. […] A hole was in each case punched in the centre of the plates. […] After incubation overnight, the agar was examined for diffusing antibiotic active compounds in that the missing cell lawn around the punched-out hole can be seen (“inhibition halos”). These inhibition halos were compared with an agar plate without further additives and an agar plate with an active compound-free nanourea dispersion. A test according to Example 5 was carried out in an overnight culture of Staphylococcus epidermidis (ATC 14990). The underlying active compound-loaded dispersions F to K were in turn prepared analogously to Example 2. As comparisons L to O, aqueous solutions having various concentrations of ciprofloxacin (Cipro) were additionally tested.

Bacillus subtilis 168 = assay: Agar plate inhibition halo test of active compound-loaded nanourea dispersions; details: 100 μl dialysed active compound-loaded nanourea dispersion of Example 2 (about 3% active compound on solids), incubation overnight, Müller-Hinton agar
Description: (§1) Cells of Staphylococcus epidermidis 498 and Bacillus subtilis 168 are plated out on agar plates such that, after incubation overnight at 37° C., they have formed a visible cell lawn on the agar. The agar contained a complex nutrient-rich medium (Müller-Hinton medium, OD600=0.1 set; 200 μl plated out per plate, dried at room temperature for one hour). A hole was in each case punched in the centre of the plates.

[2] = tested on: Staphylococcus epidermidis 498; assay: as above; details: 100 μl dialysed active compound-loaded nanourea dispersion of Example 2 (about 3% active compound on solids), incubation overnight, Müller-Hinton agar
Description: as §1

[3] = active compound-loaded nanourea dispersion prepared analogously to Example 2

Question: For `CC(=O)Oc1ccccc1C(=O)O` [Acetylsalicylic acid], which Inhibition halo [1, 3] is on record?
Answer: 13 mm

Question: With `O=C(O)c1cn(C2CC2)c2cc(N3CCNCC3)c(F)cc2c1=O` [Cipro, Ciprofloxacin] as the compound, how does the Inhibition halo ([1]; aqueous solution, 0.001 mM (comparison O)) read?
Answer: 11 mm

Question: What about the Inhibition halo ([1]; aqueous solution, 0.01 mM (comparison N)) of the same compound?
Answer: 26 mm

Question: What about the Inhibition halo ([1]; aqueous solution, 0.1 mM (comparison M)) of the same compound?
Answer: 36 mm

Question: And the Inhibition halo ([1]; aqueous solution, 1 mM (comparison L))?
Answer: 43 mm

Question: Which Inhibition halo [1, 3] does the source give for `C=O` [Formaldehyde] here?
Answer: 21 mm

Question: For `COCN(COC)c1nc(N(COC)COC)nc(N(COC)COC)n1` [Hexamethoxymethylmelamine], which Inhibition halo [1, 3] is on record?
Answer: 13 mm

Question: With `O=C(O)c1ccccc1O` [Salicylic acid] as the compound, how does the Inhibition halo [1, 3] read?
Answer: 38 mm

Question: Which results are given for `O=[N+]([O-])[O-].[Ag+]` [Silver nitrate]?
Answer: Inhibition halo (diameter minus the diameter of the punched-out hole) (Bacillus subtilis 168): 300 μm; Inhibition halo (diameter minus the diameter of the punched-out hole) [2]: 400 μm

Question: Which Inhibition halo [1, 3] does the source give for Potassium iodide-iodine complex here?
Answer: 14 mm
